Structures can show the parent of a compound that is named as a salt. Where two headings read alike, the source gives them in different places.
Target: full-length USP7 (Homo sapiens (Human), UniProt Q93009)
Assay: Enzymatic assay to determine IC50 of USP7 inhibitors (Ubiquitin-Rhodamine 110 cleavage)
Assay type: biochemical
Conditions: for IC50: 0.5 nM USP7, 0.5 μM Ubiquitin-Rhodamine 110, 45 min at 37° C.; for inhibition at 1 µM: read-out: percent value of inhibition of USP7 activity
Summary of the method: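 Full-length USP7 (0.5 nM) in 50 mM HEPES pH 7.5, 150 mM NaCl, 1 mM DTT, 1 mg/ml BSA, 0.05% Tween20 was preincubated 15 min with DTT at room temperature before compound addition.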

[1] = at 1 μM of the test compound, given where IC50 not determined yet

Sequence of full-length USP7 (Q93009 whole entry): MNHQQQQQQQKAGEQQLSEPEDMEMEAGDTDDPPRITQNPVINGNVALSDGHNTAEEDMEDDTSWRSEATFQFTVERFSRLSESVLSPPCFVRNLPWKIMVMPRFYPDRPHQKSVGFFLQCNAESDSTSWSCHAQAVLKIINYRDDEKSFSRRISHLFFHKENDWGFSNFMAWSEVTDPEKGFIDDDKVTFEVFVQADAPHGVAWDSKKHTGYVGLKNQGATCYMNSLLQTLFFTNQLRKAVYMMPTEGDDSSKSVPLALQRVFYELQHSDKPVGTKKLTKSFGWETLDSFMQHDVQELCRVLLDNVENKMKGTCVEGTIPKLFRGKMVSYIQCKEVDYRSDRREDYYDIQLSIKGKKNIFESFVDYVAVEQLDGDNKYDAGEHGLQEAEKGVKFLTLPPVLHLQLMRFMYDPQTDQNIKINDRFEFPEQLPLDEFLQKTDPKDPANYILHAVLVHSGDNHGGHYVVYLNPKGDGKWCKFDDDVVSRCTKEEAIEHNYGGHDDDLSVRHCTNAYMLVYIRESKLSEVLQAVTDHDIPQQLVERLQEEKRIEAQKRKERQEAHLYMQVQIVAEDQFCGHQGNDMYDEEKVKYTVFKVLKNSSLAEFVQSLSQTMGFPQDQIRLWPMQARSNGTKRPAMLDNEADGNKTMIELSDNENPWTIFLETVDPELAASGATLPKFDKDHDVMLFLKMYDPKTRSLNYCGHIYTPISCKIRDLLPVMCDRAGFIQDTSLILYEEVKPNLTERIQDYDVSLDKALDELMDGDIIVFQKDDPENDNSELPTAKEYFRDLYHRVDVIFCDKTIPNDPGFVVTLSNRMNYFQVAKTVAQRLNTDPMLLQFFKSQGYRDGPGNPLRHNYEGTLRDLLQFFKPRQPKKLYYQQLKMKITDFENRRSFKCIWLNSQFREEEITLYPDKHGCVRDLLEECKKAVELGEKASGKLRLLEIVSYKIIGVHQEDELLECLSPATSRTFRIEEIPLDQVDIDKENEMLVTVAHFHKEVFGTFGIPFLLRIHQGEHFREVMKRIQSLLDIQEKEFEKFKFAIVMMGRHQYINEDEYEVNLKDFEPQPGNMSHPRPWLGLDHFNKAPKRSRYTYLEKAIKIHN

SMILES: Cc1cc(C(F)(F)F)nc(-c2ccnc3cc(CN4C(=O)C5C(C4=O)C5(C)C)sc23)c1NC1CCNCC1 (centres unmarked) [Example 128, 6,6-dimethyl-3-((7-(4-methyl-3-(piperidin-4-ylamino)-6-(trifluoromethyl)pyridin-2-yl)thieno[3,2-b]pyridin-2-yl)methyl)-3-azabicyclo[3.1.0]hexane-2,4-dione tetrahydrochloride]
- IC50: < 500 nM

SMILES: Cc1cc(Cl)nc(-c2ccnc3cc(CN4C(=O)C5C(C4=O)C5(C)C)sc23)c1NC1CC2(CNC2)C1 (centres unmarked) [Example 131, 3-((7-(3-((2-azaspiro[3.3]heptan-6-yl)amino)-6-chloro-4-methylpyridin-2-yl)thieno[3,2-b]pyridin-2-yl)methyl)-6,6-dimethyl-3-azabicyclo[3.1.0]hexane-2,4-dione hydrobromide]
- IC50: < 500 nM

SMILES: Cc1cc(C(F)(F)F)nc(-c2ccnc3cc(CN4C(=O)C5C(C4=O)C5(C)C)sc23)c1NC1CC2(CNC2)C1 (centres unmarked) [Example 132, 3-((7-(3-((2-azaspiro[3.3]heptan-6-yl)amino)-4-methyl-6-(trifluoromethyl)pyridin-2-yl)thieno[3,2-b]pyridin-2-yl)methyl)-6,6-dimethyl-3-azabicyclo[3.1.0]hexane-2,4-dione 2,2,2-trifluoroacetate]
- IC50: < 500 nM

SMILES: Cc1cc(C)c(NC(=O)C2CNC2)c(-c2ccnc3cc(CN4C(=O)C5C(C4=O)C5(C)C)sc23)n1 (centres unmarked) [Example 133, N-(2-(2-((6,6-dimethyl-2,4-dioxo-3-azabicyclo[3.1.0]hexan-3-yl)methyl)thieno[3,2-b]pyridin-7-yl)-4,6-dimethylpyridin-3-yl)azetidine-3-carboxamide 2,2,2-trifluoroacetate]
- IC50: 1000 to 10000 nM

SMILES: Cc1cc(C)c(NC(=O)C2CCNCC2)c(-c2ccnc3cc(CN4C(=O)C5C(C4=O)C5(C)C)sc23)n1 (centres unmarked) [Example 134, N-(2-(2-((6,6-dimethyl-2,4-dioxo-3-azabicyclo[3.1.0]hexan-3-yl)methyl)thieno[3,2-b]pyridin-7-yl)-4,6-dimethylpyridin-3-yl)piperidine-4-carboxamide 2,2,2-trifluoroacetate]
- inhibition at 1 µM: < 20%

SMILES: Cc1cc(Cl)nc(-c2ccnc3cc(CN4C(=O)C5C(C4=O)C5(C)C)sc23)c1C(=O)N1CCNCC1 (centres unmarked) [Example 135, 3-((7-(6-chloro-4-methyl-3-(piperazine-1-carbonyl)pyridin-2-yl)thieno[3,2-b]pyridin-2-yl)methyl)-6,6-dimethyl-3-azabicyclo[3.1.0]hexane-2,4-dione 2,2,2-trifluoroacetate]
- inhibition at 1 µM: < 20%

SMILES: Cc1cc(C(F)(F)F)nc(-c2ccnc3cc(CN4C(=O)C5C(C4=O)C5(C)C)sc23)c1C(=O)N1CC[C@H](C(C)N)C1 (stereo partly drawn) [Example 138, 3-((7-(3-((3S)-3-(1-aminoethyl)pyrrolidine-1-carbonyl)-4-methyl-6-(trifluoromethyl)pyridin-2-yl)thieno[3,2-b]pyridin-2-yl)methyl)-6,6-dimethyl-3-azabicyclo[3.1.0]hexane-2,4-dione trihydrochloride]
- inhibition at 1 µM [1]: 50 to 70%

SMILES: Cc1cc(C(F)(F)F)nc(-c2ccnc3cc(CN4C(=O)C5C(C4=O)C5(C)C)sc23)c1C(=O)N1[C@@H](C)CNC[C@@H]1C (stereo partly drawn) [Example 141, 3-((7-(3-((2S,6S)-2,6-dimethylpiperazine-1-carbonyl)-4-methyl-6-(trifluoromethyl)pyridin-2-yl)thieno[3,2-b]pyridin-2-yl)methyl)-6,6-dimethyl-3-azabicyclo[3.1.0]hexane-2,4-dione 2,2,2-trifluoroacetate]
- IC50: < 500 nM

SMILES: Cc1cc(C(F)(F)F)nc(-c2ccnc3cc(CN4C(=O)C5C(C4=O)C5(C)C)sc23)c1C(=O)N1[C@H](C)CNC[C@H]1C (stereo partly drawn) [Example 142, 3-((7-(3-((2R,6R)-2,6-dimethylpiperazine-1-carbonyl)-4-methyl-6-(trifluoromethyl)pyridin-2-yl)thieno[3,2-b]pyridin-2-yl)methyl)-6,6-dimethyl-3-azabicyclo[3.1.0]hexane-2,4-dione 2,2,2-trifluoroacetate]
- IC50: 1000 to 10000 nM

SMILES: CCN1CCN(C(=O)c2c(C)cc(C(F)(F)F)nc2-c2ccnc3cc(CN4C(=O)C5C(C4=O)C5(C)C)sc23)CC1 (centres unmarked) [Example 143, 3-((7-(3-(4-ethylpiperazine-1-carbonyl)-4-methyl-6-(trifluoromethyl)pyridin-2-yl)thieno[3,2-b]pyridin-2-yl)methyl)-6,6-dimethyl-3-azabicyclo[3.1.0]hexane-2,4-dione trihydrochloride]
- IC50: < 500 nM

SMILES: CN[C@H]1CCCN(C(=O)c2c(C)cc(C(F)(F)F)nc2-c2ccnc3cc(CN4C(=O)C5C(C4=O)C5(C)C)sc23)C1 (stereo partly drawn) [Example 144, 6,6-dimethyl-3-((7-(4-methyl-3-((S)-3-(methylamino)piperidine-1-carbonyl)-6-(trifluoromethyl)pyridin-2-yl)thieno[3,2-b]pyridin-2-yl)methyl)-3-azabicyclo[3.1.0]hexane-2,4-dione trihydrochloride]
- IC50: 1000 to 10000 nM

SMILES: CC1(C)C2C(=O)N(Cc3cc4nccc(-c5ncc[nH]5)c4s3)C(=O)C21 (centres unmarked) [Example 146, 3-((7-(1H-imidazol-2-yl)thieno[3,2-b]pyridin-2-yl)methyl)-6,6-dimethyl-3-azabicyclo[3.1.0]hexane-2,4-dione 2,2,2-trifluoroacetate]
- inhibition at 1 µM: < 20%

SMILES: CC1(C)C2C(=O)N(Cc3cc4nccc(-c5nccn5CC5CNCCO5)c4s3)C(=O)C21 (centres unmarked) [Example 147, 6,6-dimethyl-3-((7-(1-(morpholin-2-ylmethyl)-1H-imidazol-2-yl)thieno[3,2-b]pyridin-2-yl)methyl)-3-azabicyclo[3.1.0]hexane-2,4-dione 2,2,2-trifluoroacetate]
- inhibition at 1 µM: < 20%

SMILES: CC1(C)C2C(=O)N(Cc3cc4nccc(-c5nc(C(F)(F)F)cn5C[C@@H]5CNCCO5)c4s3)C(=O)C21 (stereo partly drawn) [Example 149, 6,6-dimethyl-3-((7-(1-(((S)-morpholin-2-yl)methyl)-4-(trifluoromethyl)-1H-imidazol-2-yl)thieno[3,2-b]pyridin-2-yl)methyl)-3-azabicyclo[3.1.0]hexane-2,4-dione 2,2,2-trifluoroacetate]
- inhibition at 1 µM: < 20%

SMILES: Cc1cc(Cl)cc(-c2ccnc3ccoc23)c1O[C@H]1CCCNC1 [Example 150, (S)-7-(5-chloro-3-methyl-2-(piperidin-3-yloxy)phenyl)furo[3,2-b]pyridine 2,2,2-trifluoroacetate]
- IC50: 1000 to 10000 nM

SMILES: Cc1cc(Cl)cc(-c2ccnc3nc(CN4C(=O)C5C(C4=O)C5(C)C)sc23)c1O[C@H]1CCCNC1 (stereo partly drawn) [Example 151, 3-((7-(5-chloro-3-methyl-2-(((S)-piperidin-3-yl)oxy)phenyl)thiazolo[4,5-b]pyridin-2-yl)methyl)-6,6-dimethyl-3-azabicyclo[3.1.0]hexane-2,4-dione dihydrochloride]
- inhibition at 1 µM [1]: < 20%

SMILES: CC1(C)C2C(=O)N(Cc3cc4nccc(-c5cc(F)cnc5O[C@H]5CCCNC5)c4s3)C(=O)C21 (stereo partly drawn) [Example 152, 3-((7-(5-fluoro-2-(((S)-piperidin-3-yl)oxy)pyridin-3-yl)thieno[3,2-b]pyridin-2-yl)methyl)-6,6-dimethyl-3-azabicyclo[3.1.0]hexane-2,4-dione dihydrochloride]
- inhibition at 1 µM [1]: < 20%

SMILES: Cc1cc(C(F)(F)F)nc(-c2ccnc3cc(CN4C(=O)C5C(C4=O)C5(C)C)sc23)c1CN1CC[C@@H]2CNC[C@@H]21 (stereo partly drawn) [Example 153, 3-((7-(3-(((3aR,6aR)-hexahydropyrrolo[3,4-b]pyrrol-1(2H)-yl)methyl)-4-methyl-6-(trifluoromethyl)pyridin-2-yl)thieno[3,2-b]pyridin-2-yl)methyl)-6,6-dimethyl-3-azabicyclo[3.1.0]hexane-2,4-dione trihydrochloride]
- IC50: < 500 nM

SMILES: Cc1c([N+](=O)[O-])cc(-c2ccnc3cc(CN4C(=O)C5C(C4=O)C5(C)C)sc23)n1C[C@@H]1CNCCO1 (stereo partly drawn) [Example 154, 6,6-dimethyl-3-((7-(5-methyl-1-(((S)-morpholin-2-yl)methyl)-4-nitro-1H-pyrrol-2-yl)thieno[3,2-b]pyridin-2-yl)methyl)-3-azabicyclo[3.1.0]hexane-2,4-dione hydrochloride]
- IC50: < 500 nM

SMILES: CCOC(=O)c1c(C(F)(F)F)c(C)n(C[C@@H]2CNCCO2)c1-c1ccnc2cc(CN3C(=O)C4C(C3=O)C4(C)C)sc12 (stereo partly drawn) [Example 155, ethyl 2-(2-((6,6-dimethyl-2,4-dioxo-3-azabicyclo[3.1.0]hexan-3-yl)methyl)thieno[3,2-b]pyridin-7-yl)-5-methyl-1-(((S)-morpholin-2-yl)methyl)-4-(trifluoromethyl)-1H-pyrrole-3-carboxylate hydrochloride]
- inhibition at 1 µM [1]: < 20%

SMILES: Cc1cc(C(F)(F)F)nc(-c2ccnc3cc(CN4C(=O)C5C(C4=O)C5(C)C)sc23)c1C(=O)N1CC2CCC1CN2 (centres unmarked) [Example 156, 3-((7-(3-(2,5-diazabicyclo[2.2.2]octane-2-carbonyl)-4-methyl-6-(trifluoromethyl)pyridin-2-yl)thieno[3,2-b]pyridin-2-yl)methyl)-6,6-dimethyl-3-azabicyclo[3.1.0]hexane-2,4-dione hydrochloride]
- IC50: < 500 nM

SMILES: CC1(C)C2C(=O)N(Cc3cc4nccc(-c5cc(F)cnc5O[C@H]5CCNC5)c4s3)C(=O)C21 (stereo partly drawn) [Example 157, 3-((7-(5-fluoro-2-(((S)-pyrrolidin-3-yl)oxy)pyridin-3-yl)thieno[3,2-b]pyridin-2-yl)methyl)-6,6-dimethyl-3-azabicyclo[3.1.0]hexane-2,4-dione dihydrochloride]
- inhibition at 1 µM [1]: < 20%

SMILES: CC1(C)C2C(=O)N(Cc3cc4nccc(-c5cc(F)cnc5O[C@@H]5CCNC5)c4s3)C(=O)C21 (stereo partly drawn) [Example 158, 3-((7-(5-fluoro-2-(((R)-pyrrolidin-3-yl)oxy)pyridin-3-yl)thieno[3,2-b]pyridin-2-yl)methyl)-6,6-dimethyl-3-azabicyclo[3.1.0]hexane-2,4-dione hydrochloride]
- inhibition at 1 µM [1]: < 20%
